Experimental data: publication PMC10895674, “First-in-Class Dual EZH2-HSP90 Inhibitor Eliciting Striking Antiglioblastoma Activity In Vitro and In Vivo” (Journal of Medicinal Chemistry, 2024)

Tests used:
Pt3 cells = assay: ROS assay (DHR, flow cytometry); type: cell-based, human; conditions: 48 h
Method: (§1) Figure 10 Compound 7 triggers ROS production from mitochondria. (A) After treatment for 48 h, cells were stained with the DHR reagent, and the fluorescent signal was estimated by flow cytometry. Treatment concentration of compound 7 was indicated. (B) Protein lysates were subjected to Western blotting using the indicated antibody. (C) After staining with MitoSOX (red) and Hoechst 33342 (blue), cellular signals were photographed and quantified D. Protein lysates were subjected to Western blotting using the indicated antibody.
(§2) Dihydrorhodamine 123 (DHR; Thermo Fisher Scientific, Waltham, MA) was used to label cellular ROS detected by the flow cytometry,[54] and the MitoSOX reagent (Thermo Fisher Scientific) was used to label mitochondrial ROS.[55]

Pt3R cells [1] = assay: ROS assay (DHR, flow cytometry); type: cell-based, human; conditions: 48 h
Method: as §1, §2

mitochondria-derived ROS = assay: MitoSOX assay; type: cell-based; conditions: Figure 10C
Method: Thus, the ability of compound 7 to disturb redox homeostasis in TMZ-resistant cells and attain amplified therapeutic efficacy for GBM was evaluated. In both Pt3 and Pt3R cells, treatment with compound 7 for 48 h increased the ROS level (Figure 10A). […] Moreover, it was also observed that compound 7 increased mitochondria-derived ROS.
as §1, §2

Pt#3-R-induced tumor = assay: In vivo anti-GBM efficacy, Pt3R xenograft; conditions: 20 mg/kg, intraperitoneally twice per week, NOD.CB17-Prkdc scid mice
Method: In vivo anti-GBM efficacy of compound 7 was also evaluated in this study. For the in vivo study, experimental NOD.CB17-Prkdc^scid/NCrCrl mice (8-week-old) were used and Pt3R cells (1 × 10^6) in 50 μL Dulbecco’s modified Eagle’s medium (DMEM) were injected into the back of mice. After 10 days, the tumor was detectable. […] In a nutshell, the outcome of the in vivo study ascertains that the remarkable in vitro anti-GBM activity profile of dual inhibitor 7 was translated to the in vivo potential.
Animal experiments were approved by the institutional animal care and use committee of Taipei Medical University (IACUC: LAC2022-0288). Male NOD.CB17-Prkdc^scid/NCrCrl mice (8-week-old) were purchased from BioLASCO Taiwan Co., Ltd. (Taipei, Taiwan). Pt3R cells (1 × 10^6) in 50 μL of DMEM were injected into the back of mice. Experimental mice were grouped as follows (Figure 11): DMSO (n = 5), C7–10 mg/kg (n = 4), C7–20 mg/kg (n = 6), TAZ-10 mg/kg (n = 6), TAZ-20 mg/kg (n = 8), STA-5+TAZ-5 mg/kg (n = 7), STA-10+TAZ-10 mg/kg (n = 7) and STA-15+TAZ-15 mg/kg (n = 7). After 10 days, the tumor was touchable. Mice were injected intraperitoneally with DMSO (the control group) or compounds twice per week.

EZH2 = EZH2 (Homo sapiens, UniProt Q15910); assay: EZH2 inhibition assay (Reaction Biology Corp.); type: biochemical; conditions: 10-dose IC50 mode, 3-fold serial dilution starting at 10 μM, single experiment
Method: The EZH2 inhibitory ability of the synthesized adduct was assessed by Reaction Biology Corporation Malvern, PA. (http://www.reactionbiology.com).

Pt3R cells [2] = assay: Itraq-based proteomics analysis of global protein expression; type: cell-based, human; conditions: 2 μM
Description: Having identified the desired chemical probe 7, we assessed global protein expression using Itraq-based proteomics analysis to estimate whether 7 suppresses HSP90 (Pt3R cell lines). […] This observation is aligned with the results attained with geldanamycin treatment (a well-known HSP90 inhibitor)[49],[50] and confirms the HSP90-suppressive activity of compound 7 in GBM cells.
RNA was isolated using the RNA extracting kit (Zymo Research, Irvine, CA) and subjected to RNA-seq serviced by BIOTOOLS Co., Ltd. (New Taipei City, Taiwan). Cell pellets were collected and subjected to proteomic analysis serviced by BIOTOOLS Co., Ltd. The comparison in gene expression between Pt3 and Pt3R was performed using RNA seq and described previously.[60]

EZH2, sequence (Q15910 whole entry): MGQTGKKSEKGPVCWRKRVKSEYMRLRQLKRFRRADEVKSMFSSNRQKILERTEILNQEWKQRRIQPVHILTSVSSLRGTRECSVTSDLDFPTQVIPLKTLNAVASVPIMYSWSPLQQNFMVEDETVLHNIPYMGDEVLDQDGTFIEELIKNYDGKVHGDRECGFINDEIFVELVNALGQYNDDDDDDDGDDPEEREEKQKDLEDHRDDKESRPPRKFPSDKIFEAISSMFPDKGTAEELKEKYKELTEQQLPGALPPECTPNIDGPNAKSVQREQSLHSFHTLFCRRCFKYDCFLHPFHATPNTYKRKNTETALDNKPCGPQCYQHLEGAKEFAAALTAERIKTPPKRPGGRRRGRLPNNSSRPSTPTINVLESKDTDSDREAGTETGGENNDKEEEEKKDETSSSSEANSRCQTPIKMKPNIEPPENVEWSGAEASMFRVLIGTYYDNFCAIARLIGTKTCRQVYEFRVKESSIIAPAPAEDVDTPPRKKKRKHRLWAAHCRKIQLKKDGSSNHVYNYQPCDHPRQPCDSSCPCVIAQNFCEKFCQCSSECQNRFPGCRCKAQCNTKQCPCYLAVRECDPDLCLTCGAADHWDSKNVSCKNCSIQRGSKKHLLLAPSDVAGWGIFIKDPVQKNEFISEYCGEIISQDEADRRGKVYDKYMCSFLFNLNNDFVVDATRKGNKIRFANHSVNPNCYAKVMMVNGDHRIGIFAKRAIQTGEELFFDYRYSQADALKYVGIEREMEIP
EZH2, sequence (O75530 whole entry partner): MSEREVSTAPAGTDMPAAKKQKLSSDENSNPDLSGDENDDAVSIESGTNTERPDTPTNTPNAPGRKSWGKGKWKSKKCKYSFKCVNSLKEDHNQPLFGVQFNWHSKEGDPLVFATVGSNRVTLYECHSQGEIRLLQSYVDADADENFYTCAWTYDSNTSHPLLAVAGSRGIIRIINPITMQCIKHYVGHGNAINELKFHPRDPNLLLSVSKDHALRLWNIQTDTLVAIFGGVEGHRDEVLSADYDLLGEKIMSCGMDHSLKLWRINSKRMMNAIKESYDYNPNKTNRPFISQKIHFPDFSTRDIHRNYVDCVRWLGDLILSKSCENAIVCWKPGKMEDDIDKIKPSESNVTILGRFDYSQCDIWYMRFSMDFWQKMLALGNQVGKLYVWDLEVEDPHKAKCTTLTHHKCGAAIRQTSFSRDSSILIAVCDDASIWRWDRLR
EZH2, sequence (Q15022 whole entry partner): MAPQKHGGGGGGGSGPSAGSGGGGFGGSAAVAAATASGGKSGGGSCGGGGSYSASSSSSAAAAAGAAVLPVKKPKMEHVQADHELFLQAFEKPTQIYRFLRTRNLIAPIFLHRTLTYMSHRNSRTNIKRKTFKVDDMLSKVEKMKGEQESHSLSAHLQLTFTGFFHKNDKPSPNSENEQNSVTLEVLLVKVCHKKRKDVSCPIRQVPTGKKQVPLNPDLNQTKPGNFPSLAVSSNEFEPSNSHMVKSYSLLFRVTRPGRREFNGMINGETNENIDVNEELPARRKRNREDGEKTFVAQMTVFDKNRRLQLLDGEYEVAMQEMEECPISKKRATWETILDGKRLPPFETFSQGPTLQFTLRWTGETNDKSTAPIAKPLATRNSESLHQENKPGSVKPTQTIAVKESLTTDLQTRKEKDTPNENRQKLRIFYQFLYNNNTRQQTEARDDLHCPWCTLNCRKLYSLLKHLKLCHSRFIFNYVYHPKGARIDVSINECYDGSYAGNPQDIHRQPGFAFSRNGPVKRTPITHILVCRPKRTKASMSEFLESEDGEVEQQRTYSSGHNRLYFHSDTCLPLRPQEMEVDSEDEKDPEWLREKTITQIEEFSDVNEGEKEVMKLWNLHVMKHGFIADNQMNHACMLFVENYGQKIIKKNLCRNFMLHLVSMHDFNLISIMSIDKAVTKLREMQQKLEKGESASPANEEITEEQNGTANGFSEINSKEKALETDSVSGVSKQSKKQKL
EZH2, sequence (Q09028 whole entry partner): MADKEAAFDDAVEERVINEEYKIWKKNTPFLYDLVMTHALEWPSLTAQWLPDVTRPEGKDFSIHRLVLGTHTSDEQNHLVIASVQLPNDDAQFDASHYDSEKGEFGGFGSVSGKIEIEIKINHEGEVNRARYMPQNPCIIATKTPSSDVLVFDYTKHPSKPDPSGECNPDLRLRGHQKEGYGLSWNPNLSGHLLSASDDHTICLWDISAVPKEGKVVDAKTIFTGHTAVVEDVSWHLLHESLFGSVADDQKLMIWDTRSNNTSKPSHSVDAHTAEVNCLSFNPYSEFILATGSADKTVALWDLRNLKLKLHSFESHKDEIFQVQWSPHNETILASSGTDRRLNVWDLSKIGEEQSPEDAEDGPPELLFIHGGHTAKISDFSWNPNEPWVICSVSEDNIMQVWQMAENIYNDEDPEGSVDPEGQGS
EZH2, sequence (Q6ZN18 whole entry partner): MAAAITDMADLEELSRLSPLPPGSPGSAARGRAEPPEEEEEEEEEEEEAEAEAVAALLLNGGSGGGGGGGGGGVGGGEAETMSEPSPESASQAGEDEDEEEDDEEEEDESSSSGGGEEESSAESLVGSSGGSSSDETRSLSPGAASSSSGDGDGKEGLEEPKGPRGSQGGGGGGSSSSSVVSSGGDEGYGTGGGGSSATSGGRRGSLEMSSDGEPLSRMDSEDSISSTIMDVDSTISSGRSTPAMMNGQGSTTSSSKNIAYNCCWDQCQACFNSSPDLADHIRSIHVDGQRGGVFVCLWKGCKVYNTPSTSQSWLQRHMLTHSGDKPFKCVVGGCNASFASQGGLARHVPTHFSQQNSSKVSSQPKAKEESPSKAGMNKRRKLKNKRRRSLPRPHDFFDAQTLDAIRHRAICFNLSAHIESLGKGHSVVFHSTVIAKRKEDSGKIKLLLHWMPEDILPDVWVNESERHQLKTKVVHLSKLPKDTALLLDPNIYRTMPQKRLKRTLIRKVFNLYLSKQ

## CCN(c1cc(-c2cccc(N(C)C(=O)c3cc(C(C)C)c(O)cc3O)c2)cc(C(=O)NCc2c(C)cc(C)[nH]c2=O)c1C)C1CCOCC1 [Compound 7, 3′-(2,4-Dihydroxy-5-isopropyl-N-methylbenzamido)-N-((4,6-dimethyl-2-oxo-1,2-dihydropyridin-3-yl)methyl)-5-(ethyl(tetrahydro-2H-pyran-4-yl)amino)-4-methyl-[1,1′-biphenyl]-3-carboxamide]
Pt3 cells
  ROS level: increased
Pt3R cells [1]
  ROS level: increased
mitochondria-derived ROS
  MitoSOX red signal representing ROS produced from mitochondria: remarkably enhanced
Pt#3-R-induced tumor
  growth of Pt#3-R-induced tumor: significantly decreased the growth
EZH2
  IC50: 6.29 nM
Pt3R cells [2]; protein decreased
  C7/DMSO, ANXA5 (P08758): 0.406
  C7/DMSO, CORO1C (Q9ULV4): 0.410
  C7/DMSO, CYB5B (O43169): 0.568
  C7/DMSO, DDX6 (P26196): 0.596
  C7/DMSO, DDX39A (O00148): 0.515
  C7/DMSO, EIF3I (Q13347): 0.624
  C7/DMSO, GNB2 (P62879): 0.628
  C7/DMSO, H1–2 (P16403): 0.334
  C7/DMSO, H2AZ1 (P0C0S5): 0.603
  C7/DMSO, H2BC11 (P06899): 0.423
  C7/DMSO, H2BC12 (O60814): 0.419
  C7/DMSO, H4C1 (P62805): 0.556
  C7/DMSO, HADHB (P55084): 0.591
  C7/DMSO, HIST1H2AH (Q96KK5): 0.245
  C7/DMSO, HIST2H3A (Q71DI3): 0.240
  C7/DMSO, HMGB2 (P26583): 0.575
  C7/DMSO, HMGB3 (O15347): 0.573
  C7/DMSO, HNRNPA3 (P51991): 0.377
  C7/DMSO, ILF3 (Q12906): 0.645
  C7/DMSO, MCM3 (P25205): 0.635
  C7/DMSO, MCM7 (P33993): 0.586
  C7/DMSO, NASP (P49321): 0.604
  C7/DMSO, NT5E (P21589): 0.446
  C7/DMSO, PA2G4 (Q9UQ80): 0.628
  C7/DMSO, PCBP1 (Q15365): 0.628
  C7/DMSO, PTGES3 (Q15185): 0.589
  C7/DMSO, RACK1 (P63244): 0.627
  C7/DMSO, RPL26 (P61254): 0.619
  C7/DMSO, RPL35 (P42766): 0.629
  C7/DMSO, RPS6 (P62753): 0.641
  C7/DMSO, RPS10 (P46783): 0.608
  C7/DMSO, S100A13 (Q99584): 0.638
  C7/DMSO, SERPINB6 (P35237): 0.632
  C7/DMSO, SRSF7 (Q16629): 0.605
  C7/DMSO, TAF15 (Q92804): 0.609
  C7/DMSO, TNS3 (Q68CZ2): 0.582
  C7/DMSO, TUBB4B (P68371): 0.564
  C7/DMSO, TXNDC5 (Q8NBS9): 0.635
  C7/DMSO, YWHAG (P61981): 0.447
Pt3R cells [2]; protein increased
  C7/DMSO, ACTB (P60709): 1.657
  C7/DMSO, ARF3 (P61204): 1.944
  C7/DMSO, ATP5IF1 (Q9UII2): 1.646
  C7/DMSO, ATP6 V1E1 (P36543): 1.599
  C7/DMSO, CLIC1 (O00299): 2.598
  C7/DMSO, CTNNB1 (P35222): 1.550
  C7/DMSO, EEF1B2 (P24534): 1.792
  C7/DMSO, EHD1 (Q9H4M9): 1.555
  C7/DMSO, GIPC1 (O14908): 1.699
  C7/DMSO, HK1 (P19367): 1.921
  C7/DMSO, HSP90AA1 (P07900): 1.958
  C7/DMSO, HSPA1A (P0DMV8): 2.843
  C7/DMSO, HSPA4 (P34932): 1.561
  C7/DMSO, HSPA8 (P11142): 2.096
  C7/DMSO, HSPB1 (P04792): 1.661
  C7/DMSO, HSPE1 (P61604): 1.710
  C7/DMSO, HSPH1 (Q92598): 1.642
  C7/DMSO, LRPAP1 (P30533): 1.667
  C7/DMSO, NME1 (P15531): 3.299
  C7/DMSO, OCIAD2 (Q56VL3): 2.150
  C7/DMSO, OLA1 (Q9NTK5): 1.745
  C7/DMSO, P4HA2 (O15460): 1.588
  C7/DMSO, PSMD3 (O43242): 1.801
  C7/DMSO, PSMD14 (O00487): 1.579
  C7/DMSO, S100A10 (P60903): 1.664
  C7/DMSO, SERPINE1 (P05121): 4.203
  C7/DMSO, SERPINH1 (P50454): 2.186
  C7/DMSO, TWF1 (Q12792): 1.995
  C7/DMSO, ZYX (Q15942): 1.903
